Converted amounts (≈) assume the structure as drawn. The source made the active and inactive calls. The rule behind the calls is not given here.
Assays:
Aspergillus = assay: Antifungal activity against Aspergillus […] assessed as inhibition of fungal hyphae extension after 24 to 48 hr by agar well diffusion method; type: functional
Urease = Urease (Canavalia ensiformis, UniProt P07374); assay: (§1) Inhibition of Canavalia ensiformis (jack bean) urease assessed as release of ammonia after 30 min by indophenol method
Aspergillus flavus = assay: Antifungal activity against Aspergillus flavus assessed as inhibition of fungal hyphae extension after 24 to 48 hr by agar well diffusion method; type: functional
Staphylococcus aureus = assay: Antibacterial activity against Staphylococcus aureus assessed as growth inhibition after 24 hr by NCCLS broth micro-dilution method; type: functional
Shigella flexneri = assay: Antibacterial activity against Shigella flexneri assessed as growth inhibition after 24 hr by NCCLS broth micro-dilution method; type: functional
Escherichia coli = assay: Antibacterial activity against Escherichia coli assessed as growth inhibition after 24 hr by NCCLS broth micro-dilution method; type: functional
Aspergillus niger = assay: Antifungal activity against Aspergillus niger assessed as inhibition of fungal hyphae extension after 24 to 48 hr by agar well diffusion method; type: functional
Bacillus subtilis = assay: Antibacterial activity against Bacillus subtilis assessed as growth inhibition after 24 hr by NCCLS broth micro-dilution method; type: functional
[1] = target: Urease (Canavalia ensiformis) (UniProt P07374); assay: Ratio of thiourea Ki to compound Ki for Canavalia ensiformis (jack bean) urease
[2] = target: Urease (Canavalia ensiformis) (UniProt P07374); assay: as §1

Urease (Canavalia ensiformis), sequence (P07374 whole entry, looked up): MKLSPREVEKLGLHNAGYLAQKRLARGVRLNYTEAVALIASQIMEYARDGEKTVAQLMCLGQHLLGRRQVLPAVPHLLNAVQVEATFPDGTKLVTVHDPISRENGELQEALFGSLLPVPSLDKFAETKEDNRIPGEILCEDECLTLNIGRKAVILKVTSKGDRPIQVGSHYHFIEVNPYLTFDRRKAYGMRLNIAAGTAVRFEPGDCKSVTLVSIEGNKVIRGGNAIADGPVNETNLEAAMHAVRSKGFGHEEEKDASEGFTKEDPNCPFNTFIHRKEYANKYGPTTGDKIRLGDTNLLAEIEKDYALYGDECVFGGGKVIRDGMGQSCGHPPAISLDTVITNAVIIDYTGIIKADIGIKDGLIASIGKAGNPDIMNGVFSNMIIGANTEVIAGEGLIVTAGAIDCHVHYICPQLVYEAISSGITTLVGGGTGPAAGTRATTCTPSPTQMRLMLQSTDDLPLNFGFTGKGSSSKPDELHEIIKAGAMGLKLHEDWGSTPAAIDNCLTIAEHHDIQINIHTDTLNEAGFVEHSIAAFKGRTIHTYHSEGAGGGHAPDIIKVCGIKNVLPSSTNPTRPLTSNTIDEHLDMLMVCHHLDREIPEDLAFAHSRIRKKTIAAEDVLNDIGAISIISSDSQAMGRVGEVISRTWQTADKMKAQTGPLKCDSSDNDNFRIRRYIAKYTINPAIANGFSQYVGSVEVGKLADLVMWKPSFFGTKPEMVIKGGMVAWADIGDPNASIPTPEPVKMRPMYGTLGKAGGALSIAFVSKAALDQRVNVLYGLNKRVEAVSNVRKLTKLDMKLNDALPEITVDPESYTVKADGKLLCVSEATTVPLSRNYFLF
Urease, sequence (P07374 whole entry, the tested form may be a part): as the sequence (P07374 whole entry, looked up) above

Compound	inhibition zone (IZ) (Aspergillus) [mm]	Ki (Urease) [µM]	inhibition (Aspergillus flavus)	MIC (Staphylococcus aureus) [µg/mL]	MIC (Shigella flexneri) [µg/mL]	MIC (Escherichia coli) [µg/mL]	inhibition (Aspergillus niger)	MIC (Bacillus subtilis) [µg/mL]	inhibition (Aspergillus)	inhibition zone (IZ) (Aspergillus flavus) [mm]	Ratio Ki [1]	inhibition zone (IZ) (Aspergillus niger) [mm]	inhibition [2] [%]
COc1cccc(C(=O)NC(=S)Nc2ccc(S(N)(=O)=O)cc2)c1OC	0.9	0.82	inactive	0.313 (≈ 0.791 µM)	0.156 (≈ 0.394 µM)	0.313 (≈ 0.791 µM)	inactive	0.313 (≈ 0.791 µM)	–	–	–	–	–
NS(=O)(=O)c1ccc(NC(=S)NC(=O)c2cc([N+](=O)[O-])ccc2Cl)cc1	–	0.44	–	0.156 (≈ 0.376 µM)	0.313 (≈ 0.754 µM)	0.313 (≈ 0.754 µM)	–	0.156 (≈ 0.376 µM)	inactive	2.1	50	1.6	–
CCC(CC(=O)NC(=S)Nc1ccc(S(N)(=O)=O)cc1)c1ccccc1 (stereo not drawn)	–	1.23	–	0.625 (≈ 1.6 µM)	0.313 (≈ 0.799 µM)	1.25 (≈ 3.19 µM)	–	0.313 (≈ 0.799 µM)	–	–	–	–	–
NS(=O)(=O)c1ccc(NC(=S)NC(=O)c2ccc(Cl)cc2)cc1	–	0.2	–	0.156 (≈ 0.422 µM)	0.313 (≈ 0.846 µM)	0.313 (≈ 0.846 µM)	–	0.156 (≈ 0.422 µM)	–	–	100	–	–
NS(=O)(=O)c1ccc(NC(=S)NC(=O)c2ccco2)cc1	–	1.14	–	0.625 (≈ 1.92 µM)	0.313 (≈ 0.962 µM)	0.313 (≈ 0.962 µM)	–	0.625 (≈ 1.92 µM)	–	–	–	–	–
NS(=O)(=O)c1ccc(NC(=S)NC(=O)c2cccc(Cl)c2)cc1	–	1.5	–	0.156 (≈ 0.422 µM)	0.156 (≈ 0.422 µM)	0.156 (≈ 0.422 µM)	–	0.156 (≈ 0.422 µM)	–	–	–	–	–
NS(=O)(=O)c1ccc(NC(=S)NC(=O)c2cccc([N+](=O)[O-])c2)cc1	–	0.45	–	0.313 (≈ 0.823 µM)	0.313 (≈ 0.823 µM)	0.313 (≈ 0.823 µM)	–	0.313 (≈ 0.823 µM)	–	–	–	–	–
NC(N)=S [THIOUREA]	–	23	–	–	–	–	–	–	–	–	–	–	–
NS(=O)(=O)c1ccc(NC(=S)NC(=O)c2cccc(F)c2)cc1	–	1.49	–	0.313 (≈ 0.886 µM)	0.156 (≈ 0.441 µM)	0.313 (≈ 0.886 µM)	–	0.313 (≈ 0.886 µM)	inactive	2.8	–	2.4	–
COc1ccc(C(=O)NC(=S)Nc2ccc(S(N)(=O)=O)cc2)c(OC)c1OC	–	1.34	–	0.156 (≈ 0.367 µM)	0.313 (≈ 0.736 µM)	0.313 (≈ 0.736 µM)	–	0.156 (≈ 0.367 µM)	–	–	–	–	–
NS(=O)(=O)c1ccc(NC(=S)NC(=O)c2ccc([N+](=O)[O-])cc2)cc1	–	7.5	–	0.156 (≈ 0.41 µM)	0.313 (≈ 0.823 µM)	0.313 (≈ 0.823 µM)	–	0.156 (≈ 0.41 µM)	–	–	–	–	–
O=C(O)c1cn(C2CC2)c2cc(N3CCNCC3)c(F)cc2c1=O [CIPROFLOXACIN]	–	–	–	0.156 (≈ 0.471 µM)	0.313 (≈ 0.945 µM)	0.156 (≈ 0.471 µM)	–	0.625 (≈ 1.89 µM)	–	–	–	–	–
Cc1ccccc1C(=O)NC(=S)Nc1ccc(S(N)(=O)=O)cc1	–	–	–	0.625 (≈ 1.79 µM)	0.313 (≈ 0.896 µM)	0.313 (≈ 0.896 µM)	–	0.625 (≈ 1.79 µM)	–	–	–	–	53
Cc1cccc(C(=O)NC(=S)Nc2ccc(S(N)(=O)=O)cc2)c1	–	0.89	–	0.625 (≈ 1.79 µM)	0.313 (≈ 0.896 µM)	1.25 (≈ 3.58 µM)	–	0.313 (≈ 0.896 µM)	–	–	–	–	–
NS(=O)(=O)c1ccc(NC(=S)NC(=O)Cc2ccccc2)cc1	–	1.6	–	0.313 (≈ 0.896 µM)	0.313 (≈ 0.896 µM)	0.313 (≈ 0.896 µM)	–	0.313 (≈ 0.896 µM)	–	–	–	–	–
COc1cc(OC)cc(C(=O)NC(=S)Nc2ccc(S(N)(=O)=O)cc2)c1	2.7	1.21	–	0.313 (≈ 0.791 µM)	0.313 (≈ 0.791 µM)	0.313 (≈ 0.791 µM)	–	0.313 (≈ 0.791 µM)	–	1.9	–	1.5	–
NS(=O)(=O)c1ccc(NC(=S)NC(=O)c2ccc(Cl)cc2Cl)cc1	–	1.91	inactive	0.313 (≈ 0.774 µM)	0.313 (≈ 0.774 µM)	0.313 (≈ 0.774 µM)	–	0.313 (≈ 0.774 µM)	inactive	–	–	0.8	–
Cc1ccc(C(=O)NC(=S)Nc2ccc(S(N)(=O)=O)cc2)cc1	–	4.32	–	0.313 (≈ 0.896 µM)	0.156 (≈ 0.446 µM)	0.313 (≈ 0.896 µM)	–	0.313 (≈ 0.896 µM)	–	–	–	–	–
CN(C/C=C/C#CC(C)(C)C)Cc1cccc2ccccc12 [TERBINAFINE]	5.2	–	–	–	–	–	–	–	–	5.7	–	5.3	–
COc1cccc(C(=O)NC(=S)Nc2ccc(S(N)(=O)=O)cc2)c1	–	0.65	–	0.313 (≈ 0.857 µM)	0.313 (≈ 0.857 µM)	0.313 (≈ 0.857 µM)	–	0.313 (≈ 0.857 µM)	–	–	–	–	–
CCCCCCCCCCCC(=O)NC(=S)Nc1ccc(S(N)(=O)=O)cc1	4.9	1.3	–	0.313 (≈ 0.757 µM)	0.313 (≈ 0.757 µM)	0.313 (≈ 0.757 µM)	–	0.313 (≈ 0.757 µM)	–	5.1	–	4.6	–
NS(=O)(=O)c1ccc(NC(=S)NC(=O)c2ccc(Cl)cc2[N+](=O)[O-])cc1	–	5.59	–	0.156 (≈ 0.376 µM)	0.156 (≈ 0.376 µM)	0.156 (≈ 0.376 µM)	–	0.156 (≈ 0.376 µM)	–	–	–	–	–

Source: ChEMBL document CHEMBL3045259, “Synthesis, molecular docking studies, and in vitro screening of sulfanilamide-thiourea hybrids as antimicrobial and urease inhibitors” (Med Chem Res, 2013)
